Data reported in ChEMBL document CHEMBL4376850, “1-Benzylpyrrolidine-3-amine-based BuChE inhibitors with anti-aggregating, antioxidant and metal-chelating properties as multifunctional agents against Alzheimer's disease” (Eur J Med Chem, 2020).
Calls of active or inactive are those of the source. No cut-off for these calls is given here.

What was measured:
Beta-secretase 1 = Beta-secretase 1 (Homo sapiens, UniProt P56817); settings: 50 uM
[1] = target: Amyloid-beta precursor protein (Homo sapiens) (UniProt P05067); settings: at 10 µM
Description: Inhibition of amyloid beta (1 to 42) (unknown origin) aggregation at 10 uM expressed in Escherichia coli BL21 (DE3) incubated for 24 hrs by thioflavin T-based fluorometric assay relative to control

[2] = target: Microtubule-associated protein tau (Homo sapiens) (UniProt P10636); assay: Inhibition of tau aggregation (unknown origin) at 10 uM expressed in Escherichia coli BL21 (DE3) incubated for 24 hrs by thioflavin T-based fluorometric assay relative to control
[3] = target: Acetylcholinesterase (Electrophorus electricus) (UniProt O42275); assay: Inhibition of Electrophorus electricus AChE at 10 uM using acetylthiocholine iodide as substrate preincubated for 5 mins followed by substrate addition and measured after 5 mins by Ellman's method relative to control
[4] = target: Cholinesterase (Equus caballus) (UniProt P81908); assay: Inhibition of equine serum BuChE at 10 uM using butyrylthiocholine chloride as substrate pre-incubated for 5 mins followed by substrate addition and measured after 5 mins by Ellman's method relative to control
Cholinesterase = Cholinesterase (Equus caballus, UniProt P81908)
Description: Inhibition of equine serum BuChE using butyrylthiocholine chloride as substrate pre-incubated for 5 mins followed by substrate addition and measured after 5 mins by Ellman's method

[5] = Antioxidant activity assessed as increase in total ferric ion reducing activity at 150 uM using FeCl3.H2O and TPTZ incubated for 5 mins by FRAP assay relative to control; format: functional; set-up: scale not given: the % may be the effect or the level left
[6] = Antioxidant activity assessed as ABTS radical scavenging activity at 30 uM measured after 60 mins by spectrophotometric assay relative to control; format: functional
[7] = Antioxidant activity assessed as ABTS radical scavenging activity at 75 uM measured after 60 mins by spectrophotometric assay relative to control; format: functional
[8] = Antioxidant activity assessed as ABTS radical scavenging activity at 150 uM measured after 60 mins by spectrophotometric assay relative to control; format: functional
[9] = Antioxidant activity assessed as increase in total ferric ion reducing activity at 75 uM using FeCl3.H2O and TPTZ incubated for 60 mins by FRAP assay relative to control; format: functional; set-up: scale not given: the % may be the effect or the level left
[10] = Antioxidant activity assessed as increase in total ferric ion reducing activity at 150 uM using FeCl3.H2O and TPTZ incubated for 30 mins by FRAP assay relative to control; format: functional; set-up: scale not given: the % may be the effect or the level left
[11] = Antioxidant activity assessed as increase in total ferric ion reducing activity at 30 uM using FeCl3.H2O and TPTZ incubated for 60 mins by FRAP assay relative to control; format: functional; set-up: scale not given: the % may be the effect or the level left
[12] = Antioxidant activity assessed as increase in total ferric ion reducing activity at 75 uM using FeCl3.H2O and TPTZ incubated for 30 mins by FRAP assay relative to control; format: functional; set-up: scale not given: the % may be the effect or the level left
[13] = Antioxidant activity assessed as ABTS radical scavenging activity at 150 uM measured after 5 mins by spectrophotometric assay relative to control; format: functional
[14] = Antioxidant activity assessed as increase in total ferric ion reducing activity at 75 uM using FeCl3.H2O and TPTZ incubated for 5 mins by FRAP assay relative to control; format: functional; set-up: scale not given: the % may be the effect or the level left
[15] = Antioxidant activity assessed as ABTS radical scavenging activity at 75 uM measured after 30 mins by spectrophotometric assay relative to control; format: functional
[16] = Antioxidant activity assessed as increase in total ferric ion reducing activity at 30 uM using FeCl3.H2O and TPTZ incubated for 30 mins by FRAP assay relative to control; format: functional; set-up: scale not given: the % may be the effect or the level left
[17] = Antioxidant activity assessed as ABTS radical scavenging activity at 150 uM measured after 30 mins by spectrophotometric assay relative to control; format: functional
[18] = Antioxidant activity assessed as ABTS radical scavenging activity at 75 uM measured after 5 mins by spectrophotometric assay relative to control; format: functional
[19] = Antioxidant activity assessed as ABTS radical scavenging activity at 30 uM measured after 5 mins by spectrophotometric assay relative to control; format: functional
[20] = Antioxidant activity assessed as increase in total ferric ion reducing activity at 150 uM using FeCl3.H2O and TPTZ incubated for 60 mins by FRAP assay relative to control; format: functional; set-up: scale not given: the % may be the effect or the level left
[21] = Antioxidant activity assessed as ABTS radical scavenging activity at 30 uM measured after 30 mins by spectrophotometric assay relative to control; format: functional
[22] = Antioxidant activity assessed as increase in total ferric ion reducing activity at 30 uM using FeCl3.H2O and TPTZ incubated for 5 mins by FRAP assay relative to control; format: functional; set-up: scale not given: the % may be the effect or the level left
[23] = Metal chelating activity assessed as Cu2+-compound complex formation at 50 uM after 30 mins by UV-Visible spectrophotometric method

Chain of Beta-secretase 1 (P56817 whole entry): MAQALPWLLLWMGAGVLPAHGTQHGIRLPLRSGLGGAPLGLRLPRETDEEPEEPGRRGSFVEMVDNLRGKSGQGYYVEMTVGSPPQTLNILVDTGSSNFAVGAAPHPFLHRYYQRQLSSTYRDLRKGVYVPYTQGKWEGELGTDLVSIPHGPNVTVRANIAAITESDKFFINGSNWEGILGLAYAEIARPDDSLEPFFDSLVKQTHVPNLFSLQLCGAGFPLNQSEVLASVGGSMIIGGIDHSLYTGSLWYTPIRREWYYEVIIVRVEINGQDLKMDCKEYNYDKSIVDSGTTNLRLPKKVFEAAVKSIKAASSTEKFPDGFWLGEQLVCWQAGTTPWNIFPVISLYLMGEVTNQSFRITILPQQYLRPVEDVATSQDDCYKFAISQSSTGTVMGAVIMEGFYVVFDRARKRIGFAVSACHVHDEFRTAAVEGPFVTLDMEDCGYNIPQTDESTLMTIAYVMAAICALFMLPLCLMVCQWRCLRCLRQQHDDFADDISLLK
Chain of Amyloid-beta precursor protein (Homo sapiens) (P05067 whole entry): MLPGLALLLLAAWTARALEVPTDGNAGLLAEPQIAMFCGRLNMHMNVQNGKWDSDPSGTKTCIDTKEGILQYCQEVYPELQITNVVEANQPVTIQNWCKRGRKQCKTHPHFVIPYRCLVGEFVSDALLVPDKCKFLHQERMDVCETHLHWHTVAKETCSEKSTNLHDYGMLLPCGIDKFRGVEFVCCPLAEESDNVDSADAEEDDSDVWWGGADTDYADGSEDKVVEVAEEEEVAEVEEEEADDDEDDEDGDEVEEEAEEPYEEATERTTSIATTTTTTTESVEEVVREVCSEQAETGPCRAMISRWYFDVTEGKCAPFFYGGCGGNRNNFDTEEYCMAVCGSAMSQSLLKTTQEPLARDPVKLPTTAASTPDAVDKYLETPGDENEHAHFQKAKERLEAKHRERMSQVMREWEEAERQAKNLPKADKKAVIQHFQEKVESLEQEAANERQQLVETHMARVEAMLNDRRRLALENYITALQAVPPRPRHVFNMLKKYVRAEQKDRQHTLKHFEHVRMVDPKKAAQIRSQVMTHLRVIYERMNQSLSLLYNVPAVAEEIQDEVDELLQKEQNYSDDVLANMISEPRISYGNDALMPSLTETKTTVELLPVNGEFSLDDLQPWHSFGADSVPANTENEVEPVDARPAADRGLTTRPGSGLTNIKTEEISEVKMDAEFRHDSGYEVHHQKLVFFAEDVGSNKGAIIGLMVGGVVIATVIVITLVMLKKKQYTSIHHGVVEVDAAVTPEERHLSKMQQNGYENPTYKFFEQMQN
Chain of Acetylcholinesterase (Electrophorus electricus) (O42275 24-633 limits assumed): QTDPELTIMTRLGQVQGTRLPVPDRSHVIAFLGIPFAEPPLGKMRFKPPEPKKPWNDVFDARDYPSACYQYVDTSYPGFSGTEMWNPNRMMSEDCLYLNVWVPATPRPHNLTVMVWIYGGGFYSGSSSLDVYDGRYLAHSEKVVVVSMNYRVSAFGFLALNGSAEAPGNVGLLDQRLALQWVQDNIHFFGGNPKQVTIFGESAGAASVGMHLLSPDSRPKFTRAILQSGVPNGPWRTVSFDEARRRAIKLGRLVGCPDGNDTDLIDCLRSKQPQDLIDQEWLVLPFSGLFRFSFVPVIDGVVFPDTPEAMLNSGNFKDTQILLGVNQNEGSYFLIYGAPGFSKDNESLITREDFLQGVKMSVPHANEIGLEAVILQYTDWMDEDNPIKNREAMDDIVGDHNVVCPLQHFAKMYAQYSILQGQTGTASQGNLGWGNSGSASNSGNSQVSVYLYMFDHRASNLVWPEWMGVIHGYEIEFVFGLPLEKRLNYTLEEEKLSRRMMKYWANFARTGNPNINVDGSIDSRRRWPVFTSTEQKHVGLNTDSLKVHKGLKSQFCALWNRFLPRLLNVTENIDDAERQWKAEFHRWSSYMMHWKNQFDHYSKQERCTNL
Chain of Microtubule-associated protein tau (Homo sapiens) (P10636 whole entry): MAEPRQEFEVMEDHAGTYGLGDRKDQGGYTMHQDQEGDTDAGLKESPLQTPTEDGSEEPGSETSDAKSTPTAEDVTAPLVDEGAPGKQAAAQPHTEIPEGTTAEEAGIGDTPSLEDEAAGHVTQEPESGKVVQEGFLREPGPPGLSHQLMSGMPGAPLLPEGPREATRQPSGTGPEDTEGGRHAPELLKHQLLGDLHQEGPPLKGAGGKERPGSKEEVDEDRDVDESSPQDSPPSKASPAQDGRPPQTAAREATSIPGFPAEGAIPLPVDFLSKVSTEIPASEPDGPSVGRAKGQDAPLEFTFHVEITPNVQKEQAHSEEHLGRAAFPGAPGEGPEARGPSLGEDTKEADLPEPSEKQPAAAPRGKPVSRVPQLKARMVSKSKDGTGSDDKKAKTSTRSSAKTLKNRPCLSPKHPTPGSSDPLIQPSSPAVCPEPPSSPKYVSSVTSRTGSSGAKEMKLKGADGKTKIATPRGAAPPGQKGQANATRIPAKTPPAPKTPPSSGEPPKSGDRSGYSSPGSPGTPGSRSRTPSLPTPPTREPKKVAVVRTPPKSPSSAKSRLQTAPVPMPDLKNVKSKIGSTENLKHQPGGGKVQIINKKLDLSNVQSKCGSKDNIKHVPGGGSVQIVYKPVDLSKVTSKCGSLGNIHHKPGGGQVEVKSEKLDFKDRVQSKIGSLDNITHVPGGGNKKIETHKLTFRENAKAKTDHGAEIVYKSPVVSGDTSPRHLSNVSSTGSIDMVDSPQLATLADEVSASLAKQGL
Chain of Cholinesterase (P81908 whole entry): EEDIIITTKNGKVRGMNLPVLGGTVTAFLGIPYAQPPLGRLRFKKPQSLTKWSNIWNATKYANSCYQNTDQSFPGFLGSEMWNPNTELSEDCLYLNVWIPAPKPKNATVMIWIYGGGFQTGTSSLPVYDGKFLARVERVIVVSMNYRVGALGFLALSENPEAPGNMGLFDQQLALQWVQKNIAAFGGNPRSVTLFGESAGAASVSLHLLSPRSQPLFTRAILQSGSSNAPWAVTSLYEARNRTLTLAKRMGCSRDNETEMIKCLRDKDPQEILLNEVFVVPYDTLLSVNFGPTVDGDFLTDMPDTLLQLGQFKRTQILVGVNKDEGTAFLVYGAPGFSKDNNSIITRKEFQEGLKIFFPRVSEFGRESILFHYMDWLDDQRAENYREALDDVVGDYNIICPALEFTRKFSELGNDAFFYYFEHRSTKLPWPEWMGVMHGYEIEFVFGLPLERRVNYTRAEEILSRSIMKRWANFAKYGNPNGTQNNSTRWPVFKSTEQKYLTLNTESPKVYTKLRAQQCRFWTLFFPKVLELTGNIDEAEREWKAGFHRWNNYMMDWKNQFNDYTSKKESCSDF
Chain of Cholinesterase (Equus caballus) (P81908 whole entry): as above

Compound	inhibition (Beta-secretase 1) [%]	inhibition [1] [%]	inhibition [2] [%]	inhibition [3] [%]	inhibition [4] [%]	Activity [5] [%]	Activity [6] [%]	Activity [7] [%]	Activity [8] [%]	Activity [9] [%]	Activity [10] [%]	Activity [11] [%]	Activity [12] [%]	Activity [13] [%]	Activity [14] [%]	Activity [15] [%]	Activity [16] [%]	Activity [17] [%]	Activity [18] [%]	Activity [19] [%]	further results
O=C(CN1CCCC(c2ccccc2)C1)NC1CCN(Cc2ccccc2)C1 (centres undefined)	14.7	38.8	43.6	30.6	46	–	–	–	–	–	–	–	–	–	–	–	–	–	–	–	–
O=C(CN1CCCC(Cc2ccccc2)C1)NC1CCN(Cc2ccccc2)C1 (centres undefined)	< 10	45.1	54.2	27.6	–	–	–	–	–	–	–	–	–	–	–	–	–	–	–	–	IC50 (Cholinesterase): 7 µM
O=C(CN1CCN(Cc2ccccc2)CC1)NC1CCN(Cc2ccccc2)C1 (centres undefined)	40.7	37.4	66.7	< 10	17.8	–	–	–	–	–	–	–	–	–	–	–	–	–	–	–	–
c1ccc(CCN2CCN(CCNC3CCN(Cc4ccccc4)C3)CC2)cc1 (centres undefined)	33.5	34.7	59.6	< 10	25.7	39	34	48	82	18	40	10	15	46	5	41	9	73	22	14	Activity [20]: 43%; Activity [21]: 28%; Activity [22]: 8%
O=C(CCN1CCC(CCc2ccccc2)CC1)NC1CCN(Cc2ccccc2)C1 (centres undefined)	< 10	47.8	57.9	32.9	16.3	–	–	–	–	–	–	–	–	–	–	–	–	–	–	–	–
c1ccc(CC2CCCN(CCNC3CCN(Cc4ccccc4)C3)C2)cc1 (centres undefined)	24.1	–	–	29.9	–	30	5	53	94	30	32	10	28	49	24	40	10	80	18	21	Activity [23]: Active; IC50 (Cholinesterase): 1.94 µM; Activity [20]: 35%; Activity [21]: 14%; Activity [22]: 7%
c1ccc(CCC2CCN(CCNC3CCN(Cc4ccccc4)C3)CC2)cc1 (centres undefined)	31	41	67.8	< 10	–	11	18	33	45	9	13	3	6	3	1	24	2	29	12	8	Activity [23]: Active; IC50 (Cholinesterase): 7.39 µM; Activity [20]: 16%; Activity [21]: 12%; Activity [22]: 2%
c1ccc(CCC2CCN(CCCNC3CCN(Cc4ccccc4)C3)CC2)cc1 (centres undefined)	17	36.3	52.8	34.9	25.6	–	–	–	–	–	–	–	–	–	–	–	–	–	–	–	–
Cc1c(C)c2c(c(C)c1O)CCC(C)(C(=O)O)O2 (centres undefined)	–	–	–	–	–	100	100	100	100	100	100	100	100	100	100	100	100	100	100	100	Activity [20]: 100%; Activity [21]: 100%; Activity [22]: 100%
O=C(CN1CCN(c2ccccc2)CC1)NC1CCN(Cc2ccccc2)C1 (centres undefined)	43.7	34.5	74.8	< 10	< 10	44	62	59	76	60	58	49	44	36	14	49	33	66	23	23	Activity [20]: 72%; Activity [21]: 50%; Activity [22]: 10%
c1ccc(CN2CCC(NCCN3CCN(c4ccccc4)CC3)C2)cc1 (centres undefined)	40.7	38.5	79.5	< 10	23.9	55	80	85	99	68	68	55	54	76	23	78	39	98	50	42	Activity [23]: Active; Activity [20]: 79%; Activity [21]: 71%; Activity [22]: 15%
c1ccc(CN2CCC(NCCN3CCC(c4ccccc4)CC3)C2)cc1 (centres undefined)	11.8	37.4	68.1	< 10	45.5	10	31	48	84	6	6	3	4	37	0	39	3	75	15	13	Activity [23]: Active; Activity [20]: 8%; Activity [21]: 24%; Activity [22]: 2%
O=C(CN1CCN(CCc2ccccc2)CC1)NC1CCN(Cc2ccccc2)C1 (centres undefined)	48.6	15.2	61.3	< 10	15.3	–	–	–	–	–	–	–	–	–	–	–	–	–	–	–	–
O=C(CN1CCC(CCc2ccccc2)CC1)NC1CCN(Cc2ccccc2)C1 (centres undefined)	50.5	48.3	53.5	< 10	33.1	–	–	–	–	–	–	–	–	–	–	–	–	–	–	–	–
O=C(CN1CCCC(CCc2ccccc2)C1)NC1CCN(Cc2ccccc2)C1 (centres undefined)	28.8	–	–	26.7	–	–	–	–	–	–	–	–	–	–	–	–	–	–	–	–	IC50 (Cholinesterase): 10.3 µM
O=C(CN1CCC(c2ccccc2)CC1)NC1CCN(Cc2ccccc2)C1 (centres undefined)	48.4	43.7	53.6	< 10	33.3	–	–	–	–	–	–	–	–	–	–	–	–	–	–	–	Activity [23]: Active
c1ccc(CN2CCC(NCCN3CCCC(c4ccccc4)C3)C2)cc1 (centres undefined)	25	–	–	40.8	–	34	38	59	96	25	36	15	22	54	15	47	13	85	24	14	Activity [23]: Active; IC50 (Cholinesterase): 2.39 µM; Activity [20]: 39%; Activity [21]: 27%; Activity [22]: 11%
O=C(CN1CCN(C(c2ccccc2)c2ccccc2)CC1)NC1CCN(Cc2ccccc2)C1 (centres undefined)	40	27.9	61.2	< 10	< 10	–	–	–	–	–	–	–	–	–	–	–	–	–	–	–	–
